In US20220378691A1, “Cosmetic composition comprising fermented product of Nuruk” (DAEBONG LS, LTD, priority 2021, published 2022):

Assay: Antioxidant effect: DPPH free radical scavenging test
Settings: treatment concentration 0.0005%; positive control
Experimental: The following assay test method was performed by applying the decrease in absorbance at 517 nm wavelength. […] After leaving the prepared sample at room temperature for 15 minutes, absorbance was measured at a wavelength of a 517 nm using a microplate reader. […] In addition, the positive control of this experimental example was prepared by mixing 1 ml of ascorbic acid (10 ppm) solution diluted in methanol and 1 ml of DPPH.

O=C1O[C@H]([C@@H](O)CO)C(O)=C1O [Ascorbic acid, ascorbic acid]
DPPF radical scavenging activity: 91.36 ± 0.13%
